# Calls of active or inactive are those of the source.
# Legend:
# [1] = T. cruzi growth inhibition in host cells, dose response, cell-based, plate reader, dry powder, set 2 (AID 652275); assay type: functional
# [2] = molecular target: T1, Heat shock factor protein 1 (Mus musculus, UniProt P38532); assay: HSF1 potentiators in luciferase reporter cells, confirmation, cell-based, NIH3T3, luminescence, dose retest (AID 435004); assay type: functional;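 further: stress induced by proteasome inhibitor MG132 added 30 min after compound; luciferase reporter driven by HSF1 response element in NIH3T3 cells; actives raise luminescence as potentiators of the MG132 stress response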
# T1 sequence (P38532 whole entry): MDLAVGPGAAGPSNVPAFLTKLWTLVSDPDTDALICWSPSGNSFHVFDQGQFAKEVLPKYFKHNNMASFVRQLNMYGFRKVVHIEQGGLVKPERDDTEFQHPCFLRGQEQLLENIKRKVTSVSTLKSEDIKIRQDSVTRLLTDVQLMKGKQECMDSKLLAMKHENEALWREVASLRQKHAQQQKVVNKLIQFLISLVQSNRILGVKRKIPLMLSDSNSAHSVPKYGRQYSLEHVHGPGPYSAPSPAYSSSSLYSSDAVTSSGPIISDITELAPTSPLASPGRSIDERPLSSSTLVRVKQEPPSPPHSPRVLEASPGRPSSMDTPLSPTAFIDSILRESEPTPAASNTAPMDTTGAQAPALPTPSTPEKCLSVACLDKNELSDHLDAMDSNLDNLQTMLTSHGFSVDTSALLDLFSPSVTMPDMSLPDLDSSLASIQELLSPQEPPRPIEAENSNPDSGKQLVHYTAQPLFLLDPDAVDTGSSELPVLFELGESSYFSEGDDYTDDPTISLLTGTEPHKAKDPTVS
# [3] = molecular target: Disintegrin and metalloproteinase domain-containing protein 17 (Homo sapiens, UniProt P78536); assay: ADAM17 protease inhibitors, dose response, counter-screen for ADAM10 exosite inhibitor project, biochemical, quenched FRET substrate (AID 743253)
# [4] = ADAM10 inhibitors, peptide cleavage, dose response, biochemical, QFRET (AID 743254);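 further: ADAM10 enzyme with the DM2 quenched FRET peptide as substrate; EDANS fluorescence gain as the protease cuts the substrate; inhibitor potency against ADAM10 proteolytic activity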
# [5] = molecular target: T2, Methionyl-tRNA synthetase, putative (Trypanosoma brucei brucei, UniProt Q38C91); assay type: functional, Trypanosoma brucei brucei strain 927/4 GUTat10.1
# T2 sequence (Q38C91 whole entry): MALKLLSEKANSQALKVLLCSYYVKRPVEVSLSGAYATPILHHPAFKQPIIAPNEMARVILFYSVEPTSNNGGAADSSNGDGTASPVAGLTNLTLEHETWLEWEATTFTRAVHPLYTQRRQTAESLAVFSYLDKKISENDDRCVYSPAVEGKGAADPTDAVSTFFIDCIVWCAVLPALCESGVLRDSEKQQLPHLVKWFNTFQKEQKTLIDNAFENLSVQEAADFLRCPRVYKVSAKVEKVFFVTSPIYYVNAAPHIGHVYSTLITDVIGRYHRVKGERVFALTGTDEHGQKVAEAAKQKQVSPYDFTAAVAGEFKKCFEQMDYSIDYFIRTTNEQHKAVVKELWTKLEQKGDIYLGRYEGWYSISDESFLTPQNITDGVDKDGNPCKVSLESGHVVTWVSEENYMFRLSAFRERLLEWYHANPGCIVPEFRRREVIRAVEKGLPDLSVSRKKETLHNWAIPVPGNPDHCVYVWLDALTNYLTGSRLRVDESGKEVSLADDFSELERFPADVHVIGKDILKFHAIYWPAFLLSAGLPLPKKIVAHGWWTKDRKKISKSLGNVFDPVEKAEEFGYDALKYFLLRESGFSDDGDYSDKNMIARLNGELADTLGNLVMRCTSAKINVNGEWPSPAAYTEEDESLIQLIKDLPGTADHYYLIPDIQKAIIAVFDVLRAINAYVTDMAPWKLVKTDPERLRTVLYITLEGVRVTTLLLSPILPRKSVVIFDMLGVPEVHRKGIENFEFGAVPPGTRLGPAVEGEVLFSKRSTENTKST
# [6] = molecular target: T2, Methionyl-tRNA synthetase, putative; assay type: functional, Trypanosoma brucei brucei strain 927/4 GUTat10.1; remark: listed apart in the source
# [7] = Counterscreen for inhibitors of Trypanosoma brucei methionyl tRNA synthetase (MetRS): Luminescence-based cell-based high throughput dose response assay to identify compounds that are cytotoxic to Jurkat human T lymphocyte cells.; assay type: functional
# HT-1080 = assay: cytotoxicity in HT1080 fibrosarcoma cells, cell-based, fluorescence readout (AID 620); assay type: functional; details: Homo sapiens
# [8] = molecular target: Luciferin 4-monooxygenase (Photinus pyralis, UniProt P08659); assay: Counter Screen for Luciferase-based Assay Positives. [Related pubchem assays: 620, 618, 411 ]
# [9] = molecular target: Fructose-bisphosphate aldolase (Mycobacterium tuberculosis, UniProt P9WQA3); assay: Fluorescence-based biochemical high throughput dose response assay for inhibitors of the fructose-bisphosphate aldolase (FBA) of M. tuberculosis.; assay type: functional
# Beta-lactamase [10] = molecular target: T3, Beta-lactamase (Pseudomonas aeruginosa, UniProt Q79MP6); assay: […] counterscreen for selective VIM-2 inhibitors: dose response biochemical high throughput screening assay to identify inhibitors of IMP-1 metallo-beta-lactamase.
# Beta-lactamase [11] = molecular target: T3, Beta-lactamase; assay: IMP-1 metallo-beta-lactamase inhibitors, dose response, selectivity assay for VIM-2 inhibitor project, biochemical, epi-absorbance (AID 1920)
# Beta-lactamase [12] = molecular target: Beta-lactamase (Salmonella choleraesuis (strain SC-B67), UniProt Q5J463); assay: Epi-absorbance-based counterscreen for selective VIM-2 inhibitors: dose response biochemical high throughput screening assay to identify inhibitors of TEM-1 serine-beta-lactamase.
# [13] = LGR2 antagonists, dose response, cell-based, HEK293, CRE-luciferase reporter, cherry pick (AID 743342); assay type: functional
# [14] = molecular target: Voltage-dependent T-type calcium channel subunit alpha-1H (Homo sapiens, UniProt O95180); assay type: functional;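 further: channel activity triggered by adding a high calcium stimulation buffer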
# [15] = cytotoxicity toward NIH3T3 fibroblasts, dose response, counter-screen, cell-based, ATP luminescence, mouse fibroblasts (AID 2010); assay type: functional;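 further: cells exposed to compound for about 90 hours before reading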
# [16] = inhibitors of intracellular T. cruzi replication, confirmation, NIH3T3 host cells, beta-gal luminescence (AID 2044); assay type: functional, cell-based;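 further: intracellular parasites grown in NIH/3T3 mouse fibroblasts as host cells; luminescent beta-galactosidase reporter signal from transgenic T. cruzi replicating inside host cells; inhibitors lower the luminescence signal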
# [17] = A549 cell cytotoxicity, dose response, cytotoxicity control, plate reader, cherry-pick, antagonist series (AID 743412); assay type: functional, cell-based
# [18] = HEK293 cell cytotoxicity, dose response, cytotoxicity control, plate reader, cherry-picked samples (AID 743446); assay type: functional, cell-based
# [19] = HEp-2 cell cytotoxicity, dose response, cytotoxicity control for RSV inhibitor project, HTS (AID 2410); assay type: functional; details: human respiratory syncytial virus
# [20] = molecular target: SWI/SNF-related matrix-associated actin-dependent regulator of chromatin subfamily A member 2 (Homo sapiens, UniProt P51531); assay: Luminescence-based cell-based high throughput dose response assay to identify activators of the function of SWI/SNF related, matrix associated, actin dependent regulator of chromatin, subfamily a, member 2 (SMARCA2, BRM).; assay type: functional
# [21] = Counterscreen for activators of the function of SWI/SNF related, matrix associated, actin dependent regulator of chromatin, subfamily a, member 2 (SMARCA2, BRM): Luminescence-based cell-based high throughput dose response assay to identify non-selective compounds using the VP16 reporter assay.; assay type: functional
# [22] = miR-122 activators in hepatoma reporter cells, dose response, cell-based, Huh7 psiCHECK-miR122, Renilla luciferase, cherry-picked (AID 651956); assay type: functional;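 further: huh7 hepatoma cells stably carrying a psiCHECK-2 miR-122 sensor plasmid; renilla luciferase signal reporting endogenous miR-122 activity after 48 h compound exposure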
# [23] = HEK293T cytotoxicity, dose response, cytotoxicity control for miR-122 modulator project, cell-based, activator set, cherry-pick (AID 720690); assay type: functional;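 further: HEK293T human cells scored for general mammalian cytotoxicity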
# [24] = HEK293T cytotoxicity, dose response, cytotoxicity control for miR-122 modulator project, cell-based, inhibitor set, cherry-pick, set 2 (AID 720697); assay type: functional
# [25] = molecular target: T4, Small ubiquitin-related modifier 1 (Homo sapiens, UniProt P63165); assay: inhibitors of SUMO1 peptide binding, dose response, biochemical, fluorescence polarization, uHTS hits (AID 624382); assay type: functional; details: read-out: IC50_Mean
# [26] = molecular target: T5, Carboxy-terminal domain RNA polymerase II polypeptide A small phosphatase 1 (Homo sapiens, UniProt Q9GZU7); assay: inhibitors of CTDSP1, concentration-response testing, biochemical assay, absorbance-based, actives from ultra-high-throughput screening (AID 540297); assay type: functional
# T5 sequence (Q9GZU7 whole entry): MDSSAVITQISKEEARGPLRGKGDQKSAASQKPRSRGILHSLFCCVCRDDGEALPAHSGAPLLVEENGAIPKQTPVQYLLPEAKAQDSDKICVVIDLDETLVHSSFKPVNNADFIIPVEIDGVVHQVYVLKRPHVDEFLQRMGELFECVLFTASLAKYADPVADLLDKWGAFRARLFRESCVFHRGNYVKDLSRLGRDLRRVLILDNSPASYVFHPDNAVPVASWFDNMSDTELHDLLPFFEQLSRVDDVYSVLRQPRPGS
# [27] = molecular target: T4, Small ubiquitin-related modifier 1; assay: inhibitors of SUMO1 partner interactions, dose response, biochemical, FRET (AID 624383); assay type: functional; details: read-out: IC50_Mean
# Bcl-2-like protein 1 = Bcl-2-like protein 1 (Homo sapiens, UniProt Q07817); assay: BCL-XL inhibitors, dose response, selectivity assay for MCL1 inhibitor project, biochemical, fluorescence polarization, 1536-well (AID 2218)
# [28] = molecular target: T6, Induced myeloid leukemia cell differentiation protein Mcl-1 (Homo sapiens, UniProt Q07820); assay type: functional
# [29] = molecular target: T6, Induced myeloid leukemia cell differentiation protein Mcl-1; assay: MCL1-BIM BH3 interaction inhibitors, dose response, biochemical, fluorescence polarization, BIM-BH3 peptide, 1536-well (AID 2217)
# [30] = molecular target: T7, Tyrosine-protein phosphatase non-receptor type 7 (Homo sapiens, UniProt P35236); assay: inhibitors of human HePTP phosphatase, […], biochemical, absorbance, leukemia target (AID 521); assay type: functional
# T7 sequence (P35236 whole entry): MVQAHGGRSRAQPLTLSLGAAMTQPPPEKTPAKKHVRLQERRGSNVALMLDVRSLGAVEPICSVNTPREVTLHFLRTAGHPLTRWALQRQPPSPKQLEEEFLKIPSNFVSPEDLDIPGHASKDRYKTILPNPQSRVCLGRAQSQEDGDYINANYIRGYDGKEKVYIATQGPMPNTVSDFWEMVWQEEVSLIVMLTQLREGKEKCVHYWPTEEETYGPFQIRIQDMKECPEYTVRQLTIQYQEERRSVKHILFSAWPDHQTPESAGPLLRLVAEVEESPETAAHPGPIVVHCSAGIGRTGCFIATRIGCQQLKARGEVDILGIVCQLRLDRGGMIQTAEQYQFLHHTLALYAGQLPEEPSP
# T3 sequence (Q79MP6 whole entry): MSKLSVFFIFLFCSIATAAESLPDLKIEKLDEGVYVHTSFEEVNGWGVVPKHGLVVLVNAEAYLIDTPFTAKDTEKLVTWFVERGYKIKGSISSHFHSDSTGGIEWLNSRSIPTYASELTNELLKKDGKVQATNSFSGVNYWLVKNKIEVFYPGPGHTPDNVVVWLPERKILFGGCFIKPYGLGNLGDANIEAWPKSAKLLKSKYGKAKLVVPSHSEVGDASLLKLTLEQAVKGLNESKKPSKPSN
# Disintegrin and metalloproteinase domain-containing protein 17, sequence (P78536 whole entry, the tested form may be a part): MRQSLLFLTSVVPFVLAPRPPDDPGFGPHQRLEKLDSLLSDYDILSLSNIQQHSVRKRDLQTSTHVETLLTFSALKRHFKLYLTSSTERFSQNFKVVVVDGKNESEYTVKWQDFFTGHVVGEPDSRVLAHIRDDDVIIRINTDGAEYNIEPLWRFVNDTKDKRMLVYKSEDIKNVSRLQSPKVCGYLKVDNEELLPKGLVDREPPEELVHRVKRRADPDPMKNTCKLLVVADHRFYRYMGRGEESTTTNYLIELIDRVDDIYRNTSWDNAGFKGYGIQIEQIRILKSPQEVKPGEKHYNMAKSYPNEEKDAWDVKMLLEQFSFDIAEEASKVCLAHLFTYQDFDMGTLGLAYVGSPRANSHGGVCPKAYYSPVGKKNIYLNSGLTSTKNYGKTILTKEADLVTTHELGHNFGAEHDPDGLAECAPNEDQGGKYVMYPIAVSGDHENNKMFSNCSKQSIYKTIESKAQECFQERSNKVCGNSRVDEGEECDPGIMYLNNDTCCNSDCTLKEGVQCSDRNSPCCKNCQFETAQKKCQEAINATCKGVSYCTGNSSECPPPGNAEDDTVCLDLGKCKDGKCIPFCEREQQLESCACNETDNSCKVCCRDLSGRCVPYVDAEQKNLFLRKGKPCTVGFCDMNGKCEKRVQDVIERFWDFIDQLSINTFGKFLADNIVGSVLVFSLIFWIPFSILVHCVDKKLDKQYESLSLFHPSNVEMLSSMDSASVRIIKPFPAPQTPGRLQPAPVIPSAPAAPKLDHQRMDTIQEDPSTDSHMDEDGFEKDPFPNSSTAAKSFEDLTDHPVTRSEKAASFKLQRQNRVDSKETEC
# T6 sequence (Q07820 whole entry): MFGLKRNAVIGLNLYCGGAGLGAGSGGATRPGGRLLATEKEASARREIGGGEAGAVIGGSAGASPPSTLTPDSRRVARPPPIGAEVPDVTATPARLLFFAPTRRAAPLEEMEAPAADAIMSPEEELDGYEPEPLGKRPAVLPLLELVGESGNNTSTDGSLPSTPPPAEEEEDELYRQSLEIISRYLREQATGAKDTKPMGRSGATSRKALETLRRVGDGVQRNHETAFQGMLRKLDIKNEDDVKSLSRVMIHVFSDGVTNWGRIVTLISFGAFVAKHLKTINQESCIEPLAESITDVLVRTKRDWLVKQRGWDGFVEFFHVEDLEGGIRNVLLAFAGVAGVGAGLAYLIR
# T4 sequence (P63165 whole entry, the tested form may be a part): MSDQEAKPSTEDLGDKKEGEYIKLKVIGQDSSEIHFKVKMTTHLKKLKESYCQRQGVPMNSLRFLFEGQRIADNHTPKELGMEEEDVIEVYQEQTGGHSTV
# Beta-lactamase (Salmonella choleraesuis (strain SC-B67), UniProt Q5J463), sequence (Q5J463 whole entry): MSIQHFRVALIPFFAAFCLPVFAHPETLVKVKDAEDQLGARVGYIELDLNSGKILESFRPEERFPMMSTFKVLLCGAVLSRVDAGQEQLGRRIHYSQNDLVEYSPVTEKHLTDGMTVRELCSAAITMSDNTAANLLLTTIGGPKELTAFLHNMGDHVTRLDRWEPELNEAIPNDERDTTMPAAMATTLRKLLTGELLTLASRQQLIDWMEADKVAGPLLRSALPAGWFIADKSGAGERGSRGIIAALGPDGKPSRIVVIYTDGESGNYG
# Fructose-bisphosphate aldolase, sequence (P9WQA3 whole entry): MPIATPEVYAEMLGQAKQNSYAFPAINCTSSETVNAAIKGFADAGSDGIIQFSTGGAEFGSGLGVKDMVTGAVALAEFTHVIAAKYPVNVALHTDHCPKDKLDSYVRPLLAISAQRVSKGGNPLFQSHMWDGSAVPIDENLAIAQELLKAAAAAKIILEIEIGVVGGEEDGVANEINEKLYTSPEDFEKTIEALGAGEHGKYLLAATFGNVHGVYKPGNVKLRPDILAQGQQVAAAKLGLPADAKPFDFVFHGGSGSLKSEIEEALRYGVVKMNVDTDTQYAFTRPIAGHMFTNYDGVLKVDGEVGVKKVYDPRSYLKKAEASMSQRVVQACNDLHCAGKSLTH
# SWI/SNF-related matrix-associated actin-dependent regulator of chromatin subfamily A member 2, sequence (P51531 whole entry): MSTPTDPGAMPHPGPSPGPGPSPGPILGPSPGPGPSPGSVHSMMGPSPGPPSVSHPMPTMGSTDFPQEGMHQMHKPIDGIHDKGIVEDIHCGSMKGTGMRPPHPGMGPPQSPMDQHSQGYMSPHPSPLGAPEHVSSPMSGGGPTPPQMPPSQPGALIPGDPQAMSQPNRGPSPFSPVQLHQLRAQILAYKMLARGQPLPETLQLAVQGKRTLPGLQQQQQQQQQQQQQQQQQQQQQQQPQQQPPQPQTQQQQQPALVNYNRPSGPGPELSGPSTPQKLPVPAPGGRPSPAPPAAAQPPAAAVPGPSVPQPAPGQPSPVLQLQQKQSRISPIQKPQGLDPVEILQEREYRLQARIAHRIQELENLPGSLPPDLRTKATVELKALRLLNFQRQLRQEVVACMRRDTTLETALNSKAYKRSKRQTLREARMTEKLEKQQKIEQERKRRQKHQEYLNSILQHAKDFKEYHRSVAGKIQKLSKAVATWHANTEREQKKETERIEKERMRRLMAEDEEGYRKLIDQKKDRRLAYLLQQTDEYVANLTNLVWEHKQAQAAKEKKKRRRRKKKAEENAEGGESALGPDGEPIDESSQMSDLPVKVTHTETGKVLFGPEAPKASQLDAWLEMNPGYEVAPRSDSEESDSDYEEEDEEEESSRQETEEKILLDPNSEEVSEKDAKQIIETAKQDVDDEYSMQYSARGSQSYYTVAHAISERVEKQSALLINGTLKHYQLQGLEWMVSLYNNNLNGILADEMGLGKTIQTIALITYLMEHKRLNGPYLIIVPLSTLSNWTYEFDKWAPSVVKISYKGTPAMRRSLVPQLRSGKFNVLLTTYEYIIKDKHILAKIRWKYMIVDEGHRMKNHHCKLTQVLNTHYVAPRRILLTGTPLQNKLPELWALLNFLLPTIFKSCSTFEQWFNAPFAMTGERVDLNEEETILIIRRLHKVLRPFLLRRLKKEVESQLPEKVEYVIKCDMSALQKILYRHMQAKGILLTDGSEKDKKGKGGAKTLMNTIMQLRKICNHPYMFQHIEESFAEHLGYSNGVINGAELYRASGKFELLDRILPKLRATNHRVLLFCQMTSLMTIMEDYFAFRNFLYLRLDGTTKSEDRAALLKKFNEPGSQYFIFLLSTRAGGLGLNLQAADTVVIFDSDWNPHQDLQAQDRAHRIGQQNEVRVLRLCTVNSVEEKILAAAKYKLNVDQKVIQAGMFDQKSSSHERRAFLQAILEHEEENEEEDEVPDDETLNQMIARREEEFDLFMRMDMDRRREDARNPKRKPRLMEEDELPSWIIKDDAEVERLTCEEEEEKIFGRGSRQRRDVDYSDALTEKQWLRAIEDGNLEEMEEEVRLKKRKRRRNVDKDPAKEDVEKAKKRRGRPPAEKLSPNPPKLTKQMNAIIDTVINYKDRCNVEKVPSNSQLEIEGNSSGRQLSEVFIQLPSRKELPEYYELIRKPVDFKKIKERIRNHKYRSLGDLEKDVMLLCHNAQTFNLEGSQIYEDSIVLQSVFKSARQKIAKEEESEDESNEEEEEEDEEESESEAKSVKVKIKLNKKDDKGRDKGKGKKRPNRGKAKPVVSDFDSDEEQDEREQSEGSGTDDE
# Bcl-2-like protein 1, sequence (Q07817 whole entry): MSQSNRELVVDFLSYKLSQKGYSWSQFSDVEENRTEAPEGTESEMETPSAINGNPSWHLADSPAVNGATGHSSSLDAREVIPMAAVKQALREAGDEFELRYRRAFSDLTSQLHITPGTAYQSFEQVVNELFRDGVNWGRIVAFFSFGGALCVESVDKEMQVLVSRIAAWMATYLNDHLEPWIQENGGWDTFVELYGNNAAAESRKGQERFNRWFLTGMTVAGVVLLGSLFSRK
# Luciferin 4-monooxygenase, sequence (P08659 whole entry): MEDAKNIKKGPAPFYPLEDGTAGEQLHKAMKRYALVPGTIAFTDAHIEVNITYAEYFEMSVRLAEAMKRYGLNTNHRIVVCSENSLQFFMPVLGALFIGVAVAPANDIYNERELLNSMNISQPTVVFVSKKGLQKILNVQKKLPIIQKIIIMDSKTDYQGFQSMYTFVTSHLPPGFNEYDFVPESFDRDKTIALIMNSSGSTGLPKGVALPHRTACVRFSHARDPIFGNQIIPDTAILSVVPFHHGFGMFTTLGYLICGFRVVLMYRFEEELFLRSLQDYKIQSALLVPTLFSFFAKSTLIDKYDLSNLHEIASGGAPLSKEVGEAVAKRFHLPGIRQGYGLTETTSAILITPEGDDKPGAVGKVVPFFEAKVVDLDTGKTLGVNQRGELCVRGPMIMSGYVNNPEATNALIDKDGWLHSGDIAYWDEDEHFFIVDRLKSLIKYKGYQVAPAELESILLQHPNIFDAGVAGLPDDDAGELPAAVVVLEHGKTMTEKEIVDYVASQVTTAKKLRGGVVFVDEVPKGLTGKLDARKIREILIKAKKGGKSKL
smiles,measurement,setting,value
CCOC(=O)c1cc2c(c(-c3cccc(C#CCN(C)C)c3)n1)[C@@H](CCO)N([S+]([O-])C(C)(C)C)C2 (stereo partly specified),AC50,[1],16.2 µM (active)
N#Cc1c(-c2ccccc2)c(-c2ccccc2)n(Cc2ccco2)c1NC(=O)c1cccs1,EC50,[2],> 260 µM (inactive)
same,IC50,[3],> 69.5 µM (inactive)
same,IC50,[4],> 69.5 µM (inactive)
Nc1c(Cl)ncnc1Nc1ccc(C(=O)O)cc1,IC50,[5],12.5 µM (inactive)
same,IC50,[6],3.93 µM (active)
same,IC50,[7],83.2 µM (inactive)
Cc1ccc2nc(-c3cccc(N)c3)oc2c1,EC50,HT-1080,> 50 µM (not active)
same,EC50,[8],9.87 µM (active)
same,IC50,[9],0.588 µM (active)
CC1CCCCC1n1c(S)nnc1-c1cccnc1 (stereo unspecified),IC50,Beta-lactamase [10],> 59.6 µM (inactive)
same,IC50,Beta-lactamase [11],> 59.6 µM (inactive)
same,IC50,Beta-lactamase [12],> 59.6 µM (inactive)
COc1ccc(NC(=O)N(C)C[C@@H]2OCCCC[C@H](C)Oc3ccc(NC(=O)NC4CCCCC4)cc3C(=O)N([C@H](C)CO)C[C@@H]2C)cc1,AC50,[13],18.2 µM (active)
Cc1cccc2cc(CN(Cc3ccco3)C(=O)Nc3cccc(C#N)c3)c(Cl)nc12,EC50,[14],6.15 µM (active)
same,IC50,[3],> 69.5 µM (inactive)
same,EC50,[15],26.5 µM (active)
same,EC50,[16],1.94 µM (active)
same,IC50,[4],> 69.5 µM (inactive)
C[C@H](CO)N1C[C@H](C)[C@H](CN(C)C(=O)Nc2ccc(C(F)(F)F)cc2)OCCCC[C@H](C)Oc2ccc(NC(=O)CCC(F)(F)F)cc2C1=O,AC50,[17],35.6 µM (active)
same,AC50,[13],1.29 µM (active)
same,AC50,[18],32.9 µM (active)
COc1ccc(Cn2nnnc2C(CC(C)C)N2CCN(c3ccccc3)CC2)cc1 (stereo unspecified),CC50,[19],> 50 µM (active)
same,IC50,[9],> 9.99 µM (inactive)
Cc1cc(Br)ccc1NC(=O)c1ccc(-n2cncn2)c([N+](=O)[O-])c1,IC50,[5],119 µM (inactive)
same,IC50,[6],5.79 µM (active)
same,IC50,[7],83.3 µM (inactive)
CC(=O)Nc1cc(-c2ccc(N3CCN(C)CC3)cc2)cn2c(-c3ccc(F)cc3)cnc12,EC50,[20],> 91.2 µM (inactive)
same,EC50,[21],> 91.2 µM (inactive)
CN(C)CC#Cc1cccc(-c2nc(C(=O)NCc3ccc(Oc4ccccc4)cc3)cc3c2[C@@H](CCO)N([S+]([O-])C(C)(C)C)C3)c1 (stereo partly specified),AC50,[1],0.697 µM (active)
Cc1cc(=O)oc2c3c(cc(OCC(=O)N4CCC[C@H]4C(=O)O)c12)OC(C)(C)CC3,IC50,Beta-lactamase [10],> 59.6 µM (inactive)
same,IC50,Beta-lactamase [11],> 59.6 µM (inactive)
same,IC50,Beta-lactamase [12],> 59.6 µM (inactive)
C[C@@H]1CCCCO[C@@H](CN(C)CC2CCCCC2)[C@H](C)CN([C@H](C)CO)C(=O)c2cc(NC(=O)Nc3cccc4ccccc34)ccc2O1,AC50,[22],7.47 µM (active)
same,AC50,[23],14.8 µM (active)
same,AC50,[24],13.8 µM (active)
CC(C)(C)NC(=O)C(CCc1ccccc1)n1c(=O)c(-c2ccccc2)nc2ccccc21 (stereo unspecified),EC50,[20],> 91.1 µM (inactive)
same,EC50,[21],> 91.1 µM (inactive)
CN1C(=O)c2cc(NC(=O)C3CC3)ccc2OC[C@@H]2O[C@H](CC(=O)NC3CCC3)CC[C@H]21,AC50,[24],9.32 µM (active)
Cn1cnnc1SCC(=O)Nc1sc2c(c1C(N)=O)CCC2,IC50,[25],> 66.6 µM (inactive)
same,IC50,[26],2.77 µM (active)
same,IC50,[27],13.7 µM (active)
same,IC50,Bcl-2-like protein 1,> 36.3 µM (not active)
same,IC50,[28],3.16 µM (active)
same,IC50,[29],8.58 µM (active)
same,IC50,[30],2.43 µM (active)

# From ChEMBL document CHEMBL1201862, “PubChem BioAssay data set” (2004)
